Test results reported in publication PMC4764579, “Structural insights into the mechanism of activation of the TRPV1 channel by a membrane-bound tarantula toxin” (eLife, 2016).
Positions of bridges follow the written chain, without caps; N, C: chain ends. Residues, ends and D or L forms follow the SMILES beside them.

Test: Membrane partitioning of toxins into lipid vesicles measured using Trp fluorescence
Assay type: physicochemical
Details: LUVs 1:1 POPC:POPG
Source text: Motivated by the amphipathic character evident in the structure of DkTx, together with the placement of the toxin at the protein-lipid interface when bound to TRPV1, we investigated the interaction of DkTx and each of its two lobes with lipid membranes. For these experiments, we took advantage of the presence of a single conserved and solvent accessible Trp residue in loop 2 of both K1 and K2 (Figure 1C,D; W11 and W53), and used Trp fluorescence to monitor the partitioning of the toxin from the aqueous solution into the membrane environment ([Gupta et al., 2015]; [Ladokhin et al., 2000]; [Milescu et al., 2007]). When aqueous solutions of DkTx were excited at a wavelength of 280 nm, emission spectra with maxima at 353 nm were obtained (Figure 5A, left), as expected for Trp residues residing in such an environment. […] To quantify the extent of partitioning as a function of lipid concentration, we measured the relative fluorescence intensity in a blue-shifted region of the spectra (e.g. 320 nm) as a function of lipid concentration, and fit a partition function to the data to obtain a mole-fraction partition coefficient (Kx) of (2.3 ± 0.7) × 10^6, indicating an energetically favorable interaction of DkTx with lipid membranes (Figure 5A, right). This strong interaction of DkTx with membranes would facilitate binding of the toxin to the channel by increasing the local concentration of the toxin near the channel and by a reduction in the dimensionality of diffusion within the membrane ([Axelrod and Wang, 1994]).
Figure 5. Interaction of DkTx and toxin constructs with lipid membranes measured using Trp fluorescence. (A–E, left panel) Trp emission spectra of DkTx (A), K1 without linker (B), K2 (C), bivalent K1 (K1K1) (D) and bivalent K2 (K2K2) (E) in the absence (black) and presence (blue, 1.6 mM for DkTx, 2 mM for K1-ΔL and K1K1, and 3 mM for K2 and K2K2) of lipid vesicles (1:1 mix of POPC:POPG). (A–E, right panel) Relative fluorescence intensity at 320 nm (F/F0) as a function of available lipid concentrations (60% of total lipid concentration). Smooth curves correspond to partition functions with Kx = (2.3 ± 0.7) × 10^6 and F/F0^max = 2.65 ± 0.08 for DkTx, Kx = (3.9 ± 1.1) × 10^5 and F/F0^max = 2.63 ± 0.07 for K1-ΔL, Kx = (2.0 ± 0.3) × 10^4 and F/F0^max = 3.71 ± 0.40 for K2, Kx = (2.9 ± 0.3) × 10^6 and F/F0^max = 2.47 ± 0.03 for K1K1 and Kx = (8.1 ± 2) × 10^5 and F/F0^max = 2.77 ± 0.55 for K2K2. Error bars correspond to SEM (n = 3 or 4). Partition functions for K1-ΔL and K2 are shown as dotted lines for comparison in D and E, respectively. (F) Comparisons of mole-fraction partition coefficient (Kx) of toxins. 7G-DkTx denotes a construct of DkTx whose linker (PYVPVTT) is replaced with 7 Gly residues. Error bars correspond to SEM (n = 3 or 4). DOI: http://dx.doi.org/10.7554/eLife.11273.020 Figure 5—figure supplement 1. Interaction of K1-K2 chimeras with lipid membranes measured using Trp fluorescence. (A–E, left panel) Trp emission spectra of K1(D1N) (A), K1(K2L2) (B), K1(K2L3) (C), K1(K2L4) (D) and K1(K2CT) (E) in the absence (black) and presence (blue, 2 mM) of lipid vesicles (1:1 mix of POPC:POPG). (A–D, right panel) Relative fluorescence intensity at 320 nm (F/F0) as a function of available lipid concentrations (60% of total lipid concentration). Smooth curves correspond to partition functions with Kx = (1.76 ± 0.06) × 10^6 and F/F0^max = 3.79 ± 0.02 for K1(D1N), Kx = (4.77 ± 1.39) × 10^5 and F/F0^max = 1.31 ± 0.02 for K1(K2L2), Kx = (1.02 ± 0.04) × 10^4 and F/F0^max = 3.69 ± 0.02 for K1(K2L3), and Kx = (0.90 ± 0.04) × 10^6 and F/F0^max = 2.59 ± 0.02 for K1(K2L4). Error bar corresponds to SEM (n = 3 or 4). Smooth curve of K1-ΔL was shown as a dotted line for comparison throughout the figures. (F) Comparisons of mole-fraction partition coefficient (Kx) of toxins. Error bars correspond to SEM (n = 3 or 4). DOI: http://dx.doi.org/10.7554/eLife.11273.021 [drawing 10] […]

Compound: CC[C@H](C)[C@@H]1NC(=O)[C@H](Cc2ccccc2)NC(=O)[C@H](C)NC(=O)[C@H](CC(C)C)NC(=O)[C@@H]2CCCN2C(=O)[C@@H]2CSSC[C@@H]3NC(=O)[C@H](C(C)C)NC(=O)[C@H](CCC(=O)O)NC(=O)CNC(=O)[C@H](CCC(=O)O)NC(=O)[C@H](CCCCN)NC(=O)[C@H](C)NC(=O)[C@@H](NC(=O)[C@@H](N)CC(N)=O)CSSC[C@H](NC(=O)[C@H](CSSC[C@@H](C(=O)N[C@@H](CCC(=O)O)C(=O)N[C@@H](CCCCN)C(=O)N[C@@H](Cc4ccc(O)cc4)C(=O)N[C@@H](CCCNC(=N)N)C(=O)O)NC(=O)[C@H](Cc4ccc(O)cc4)NC(=O)[C@@H]4CCCN4C1=O)NC(=O)[C@H](CCCCN)NC(=O)[C@H](CO)NC(=O)CNC(=O)[C@H](Cc1c[nH]c4ccccc14)NC(=O)CNC3=O)C(=O)N[C@@H](Cc1c[nH]cn1)C(=O)NCC(=O)N[C@@H](CC(C)C)C(=O)N[C@@H](CC(=O)O)C(=O)N2 [K2] (H-NCAKEGEVCGWGSKCCHGLDCPLAFIPYCEKYR-OH; disulfide 2-16, 9-21, 15-29 (inferred); N-terminus and C-terminus assumed)
- F/F0^max (relative fluorescence intensity at 320 nm when partitioning is saturated) (Trp fluorescence, 10 mM HEPES, 1 mM EDTA, pH 7.0, fit of partition function, ± SEM, n = 3 or 4, SEM): 3.71 ± 0.40
- measured free energy of membrane partitioning (ΔG° = −RT lnKx) (from measured Kx): -5.8 kcal/mol
